Experimental data reported in patent US20160130245A1, “6,8-SUBSTITUTED NARINGENIN DERIVATIVE AND USE THEREOF” (SUN YAT-SEN UNIVERSITY, priority 2012, published 2016).

What was measured:
[1] = system: mice with cough induced from aqueous ammonia; assay: Cough relieving effect of singly administered compounds in mice with cough induced from aqueous ammonia; format: in vivo, male KM mice; conditions: example compounds 7.44 μmol/ml, codeine phosphate 0.47 μmol/ml; for Coughs: coughs counted in 3 min after 15 s atomized 25% aqueous ammonia, 1 hr after administration, intragastric gavage or intraperitoneal injection, 0.2 ml/10 g body weight, mean ± spread; for Cough relieving rate: relative to blank group (17.8 ± 5.4 coughs), same dosing as Coughs, 0.2 ml/10 g
Excerpt: II. Test on Cough Relieving Effect of Singly Administered Example Compounds of the Present Invention in Mice with Cough Induced from Aqueous Ammonia
1. Test animals: male KM mice (available from Guangdong Medical Laboratory Animal Center, Certificate No.: SCXK (Guangdong) 2008-0002, No. 0113738).
2. Test groups and treatment with drugs: Blank control group: treatment with 50% (v/v) PEG400 in physiological saline.
Treatment group with codeine phosphate as positive control—Codeine phosphate (Lott 20091212) is manufactured by Qinghai Pharmaceutical Co., Ltd. Before test, powdered codeine phosphate was added to 50% (v/v) PEG400 in physiological saline, to formulate a 0.47 μmol/ml solution.
Eligible male KM mice were randomly designated to a blank control group, and treatment groups with codeine phosphate as positive control and with example compounds, according to […].
The animals in each group were administered by intragastric gavage or intraperitoneal injection at a dosage of 0.2 ml/10 g of body weight, and placed in a cough inducing chamber 1 hr after administration. 1 ml of 25% concentrated aqueous ammonia was added to an atomizing cup and atomized for 15 s (at a rate of 0.15 ml/min). The coughs in 3 min were counted (during the typical cough, the mouth was opened and the head was lowered, which were accompanied by quivering of the neck and frequently a forward rushing).
Statistical analysis of data—Statistical analysis of all the data was conducted by SPSS 17.0 after the outliers were excluded by t test. Analysis of variance was performed by one-way ANOVA, multiple comparisons between the blank control group and each treatment group were carried out by Dunnett test, and the pairwise multiple comparisons between each treatment group and the codeine phosphate group were conducted by Duncan test.

| Compound | Coughs [1] | Cough relieving rate [1] [%] | melting point [°C] |
| --- | --- | --- | --- |
| CCCc1c(O)cc2c(c1O)C(=O)CC(c1ccc(O)cc1)O2 (centres unmarked) [Example 2, 6-n-propyl-2,3-dihydro-5,7-dihydroxy-2-(4-hydroxyphenyl)chromen-4-one] | 12.4 ± 4.6 | 30.16 | 173 to 175 |
| C=CCc1c(O)c(Br)c(O)c2c1OC(c1ccc(O)cc1)CC2=O (centres unmarked) [Example 3, 8-allyl-6-bromo-2,3-dihydro-5,7-dihydroxy-2-(4-hydroxyphenyl)chromen-4-one] | 11.2 ± 6.2 | 37.28 | 203 to 205 |
| C=CCc1c(O)c(Br)c2c(c1O)C(=O)CC(c1ccc(O)cc1)O2 (centres unmarked) [Example 4, 6-allyl-8-bromo-2,3-dihydro-5,7-dihydroxy-2-(4-hydroxyphenyl)chromen-4-one] | 11.0 ± 4.1 | 38.03 | 158 to 160 |
| C=CCc1c(O)c(Cl)c2c(c1O)C(=O)CC(c1ccc(O)cc1)O2 (centres unmarked) [Example 5, 6-allyl-8-chloro-2,3-dihydro-5,7-dihydroxy-2-(4-hydroxyphenyl)chromen-4-one] | 11.8 ± 7.3 | 33.49 | 158 to 160 |
| CCCc1c(O)c(Cl)c(O)c2c1OC(c1ccc(O)cc1)CC2=O (centres unmarked) [Example 6, 6-chloro-2,3-dihydro-5,7-dihydroxy-2-(4-hydroxyphenyl)-8-propylchromen-4-one] | 9.1 ± 3.9 | 49.06 | 175 to 176 |
| C=CCc1c(O)c(Cl)c(O)c2c1OC(c1ccc(O)cc1)CC2=O (centres unmarked) [Example 7, 8-allyl-6-chloro-2,3-dihydro-5,7-dihydroxy-2-(4-hydroxyphenyl)chromen-4-one] | 10.5 ± 5.8 | 40.85 | 215 to 216 |
| C=CCc1c(O)c(O)c2c(c1O)C(=O)CC(c1ccc(O)cc1)O2 (centres unmarked) [Example 8, 6-allyl-2,3-dihydro-5,7,8-Trihydroxy-2-(4-hydroxyphenyl)chromen-4-one] | 10.2 ± 2.6 | 42.64 | 95 to 100 |
| CCCc1c(O)c(Cl)c2c(c1O)C(=O)CC(c1ccc(O)cc1)O2 (centres unmarked) [Example 9, 8-Chloro-2,3-dihydro-5,7-dihydroxy-2-(4-hydroxyphenyl)-6-propylchromen-4-one] | 10.7 ± 4.2 | 39.82 | 175 to 176 |
| C=CCc1c(O)c(I)c2c(c1O)C(=O)CC(c1ccc(O)cc1)O2 (centres unmarked) [Example 10, 8-iodo-2,3-dihydro-5,7-dihydroxy-2-(4-hydroxyphenyl)-6-allylchromen-4-one] | 12.2 ± 4.0 | 31.24 | 218 to 220 |
| O=CCc1c(O)cc(O)c2c1O[C@H](c1ccc(O)cc1)CC2=O [Example 11, Naringenin-8-acetaldehyde] | 11.4 ± 6.5 | 35.78 | 150 to 155 |
| O=CCc1c(O)cc2c(c1O)C(=O)C[C@@H](c1ccc(O)cc1)O2 [Example 12, Naringenin-6-acetaldehyde] | 9.3 ± 4.3 | 47.59 | 178 to 180 |
| O=C(O)Cc1c(O)c(Cl)c(O)c2c1O[C@H](c1ccc(O)cc1)CC2=O [Example 13, 6-chloro-naringenin-8-acetic acid] | 7.4 ± 3.4 | 58.43 | 185 to 186 |
| O=C(O)Cc1c(O)c(Cl)c2c(c1O)C(=O)C[C@@H](c1ccc(O)cc1)O2 [Example 14, 8-chloro-naringenin-6-acetic acid] | 9.3 ± 3.9 | 47.59 | 185 to 186 |
| O=C(O)Cc1c(O)cc(O)c2c1O[C@H](c1ccc(O)cc1)CC2=O [Example 15, Naringenin-8-acetic acid] | 8.3 ± 5.8 | 53.31 | 245 to 247 |
| COc1ccc2c3c1O[C@H]1[C@@H](O)C=C[C@H]4[C@@H](C2)N(C)CC[C@@]341 [codeine phosphate, reference compound] | 10.8 ± 3.5 | 39.60 |  |
